Reference: ChEMBL document CHEMBL5154928, “Structure-Aided Design, Synthesis, and Biological Evaluation of Potent and Selective Non-Nucleoside Inhibitors Targeting Protein Arginine Methyltransferase 5” (J Med Chem, 2022)
Calls of active or inactive are those of the source. No cut-off for these calls is given here.

Legend:
[1] = Metabolic stability in human liver microsomes assessed as half life incubated for 10 mins measured up to 60 mins in presence of NADPH by LC-MS/MS analysis; format: ADME, Microsome
[2] = biological target: T1, Protein arginine N-methyltransferase 5 (Homo sapiens, UniProt O14744); test: Displacement of [3H]-SAM from PRMT5 (unknown origin) using peptide substrate preincubated for 15 mins followed by substrate addition for 60 mins by radioactive biochemical assay
T1 sequence (O14744 whole entry): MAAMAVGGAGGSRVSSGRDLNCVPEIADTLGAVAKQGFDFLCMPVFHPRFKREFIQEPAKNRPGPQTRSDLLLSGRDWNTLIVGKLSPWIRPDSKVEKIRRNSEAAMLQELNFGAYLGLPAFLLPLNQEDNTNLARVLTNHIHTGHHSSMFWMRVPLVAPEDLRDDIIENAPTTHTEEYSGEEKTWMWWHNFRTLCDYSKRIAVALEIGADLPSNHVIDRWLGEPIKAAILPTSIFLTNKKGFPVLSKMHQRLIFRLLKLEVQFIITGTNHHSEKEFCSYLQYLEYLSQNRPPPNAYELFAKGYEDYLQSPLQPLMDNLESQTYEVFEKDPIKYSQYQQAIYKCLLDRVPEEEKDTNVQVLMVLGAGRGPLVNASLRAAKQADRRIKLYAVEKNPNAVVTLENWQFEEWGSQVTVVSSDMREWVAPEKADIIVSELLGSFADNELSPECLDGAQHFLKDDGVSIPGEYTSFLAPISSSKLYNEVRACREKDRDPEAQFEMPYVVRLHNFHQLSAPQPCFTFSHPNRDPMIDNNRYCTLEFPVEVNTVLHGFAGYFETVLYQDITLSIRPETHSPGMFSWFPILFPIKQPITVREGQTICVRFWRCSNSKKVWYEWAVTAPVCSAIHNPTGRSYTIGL

A-375 [3] = test: Antiproliferation activity against human A-375 cells assessed as cell growth inhibition incubated for 5 days by CCK-8 assay; conditions: A-375, 120 h
[4] = biological target: T1, Protein arginine N-methyltransferase 5; test: Displacement of [3H]-SAM from PRMT5 (unknown origin) at 10 uM using peptide substrate preincubated for 15 mins followed by substrate addition for 60 mins by radioactive biochemical assay relative to control
[5] = biological target: T1, Protein arginine N-methyltransferase 5; test: Inhibition of PRMT5 in human A-375 cells assessed as decrease in […] levels measured after 48 hrs by Western blot analysis; format: cell-based; conditions: dose 0.5-8 µM, DDE = dose-dependent effect
MV4-11 = test: Antiproliferation activity against human MV4-11 cells assessed as cell growth inhibition incubated for 5 days by CCK-8 assay; format: functional, cell-based; conditions: dose <= 10.0 µM, time 5.0 day, DDE = dose-dependent effect
Mus musculus [6] = test: In vivo inhibition of PRMT5 in human A-375 cells xenografted in BALB/c mouse assessed as reduction in H3R8me2s levels in tumor tissue at 75 mg/kg, po qd for 19 days measured after 3 weeks by Western blot analysis; format: functional, organism-based; conditions: time 19.0 day
Mus musculus [7] = test: In vivo inhibition of PRMT5 in human A-375 cells xenografted in BALB/c mouse assessed as reduction in H4R3me2s levels in tumor tissue at 75 mg/kg, po qd for 19 days measured after 3 weeks by Western blot analysis; format: functional, organism-based; conditions: time 19.0 day
[8] = biological target: T1, Protein arginine N-methyltransferase 5; test: Competitive inhibition of PRMT5 (unknown origin) at 0.001 to 100000 nM using histone H4 (1 to 21 residues) as substrate incubated for 120 mins in presence of different concentrations of SAM by AlphaLISA assay; conditions: dose 0.001-100000 nM
SNU-423 = test: Antiproliferation activity against human SNU-423 cells assessed as cell growth inhibition incubated for 5 days by CCK-8 assay; format: functional, cell-based; conditions: dose <= 10.0 µM, time 5.0 day, DDE = dose-dependent effect
MDA-MB-231 = test: Antiproliferation activity against human MDA-MB-231 cells assessed as cell growth inhibition incubated for 5 days by CCK-8 assay; format: functional, cell-based; conditions: dose <= 10.0 µM, time 5.0 day, DDE = dose-dependent effect
Mus musculus [9] = test: In vivo inhibition of PRMT5 in human A-375 cells xenografted in BALB/c mouse assessed as reduction in sDMA levels in tumor tissue at 75 mg/kg, po qd for 19 days measured after 3 weeks by Western blot analysis; format: functional, organism-based; conditions: time 19.0 day
CHL-1 = test: Antiproliferation activity against human CHL-1 cells assessed as cell growth inhibition incubated for 5 days by CCK-8 assay; format: functional, cell-based; conditions: dose <= 10.0 µM, time 5.0 day, DDE = dose-dependent effect
MOLM-13 = test: Antiproliferation activity against human MOLM-13 cells assessed as cell growth inhibition incubated for 5 days by CCK-8 assay; format: functional, cell-based; conditions: dose <= 10.0 µM, time 5.0 day, DDE = dose-dependent effect
SNU-449 = test: Antiproliferation activity against human SNU-449 cells assessed as cell growth inhibition incubated for 5 days by CCK-8 assay; format: functional, cell-based; conditions: dose <= 10.0 µM, time 5.0 day, DDE = dose-dependent effect
[10] = biological target: T1, Protein arginine N-methyltransferase 5; test: Competitive inhibition of PRMT5 (unknown origin) in presence of MTA
A-375 [11] = test: Induction of apoptosis in human A-375 cells incubated for 48 hrs by Annexin-V FITC/PI staining based flow cytometry analysis; format: functional, cell-based; conditions: dose 0.5-4 µM, DDE = dose-dependent effect
MDA-MB-453 = test: Antiproliferation activity against human MDA-MB-453 cells assessed as cell growth inhibition incubated for 5 days by CCK-8 assay; format: functional, cell-based; conditions: dose <= 10.0 µM, time 5.0 day, DDE = dose-dependent effect
[12] = Volume of distribution at steady state in mouse at 3 mg/kg, iv measured for 0.25 to 24 hrs by LC-MS/MS analysis; format: ADME, organism-based; conditions: in vivo, time 0.25-24 hrs, read-out: Vdss
[13] = AUC (0 to infinity) in mouse at 3 mg/kg, iv measured for 0.25 to 24 hrs by LC-MS/MS analysis; format: ADME, organism-based; design: time upper 24 hrs, time lower 0.25 hrs, dose 3 mg/kg, route iv; conditions: in vivo
[14] = Oral bioavailability in Sprague-Dawley rat at 10 mg/kg, measured for 0.25 to 24 hrs by LC-MS/MS analysis; format: ADME, organism-based; conditions: in vivo, time 0.25-24 hrs
[15] = Clearance in mouse at 3 mg/kg, iv measured for 0.25 to 24 hrs by LC-MS/MS analysis; format: ADME, organism-based; conditions: in vivo, time 0.25-24 hrs
[16] = Cmax in mouse at 10 mg/kg, po measured for 0.25 to 24 hrs by LC-MS/MS analysis; format: ADME, organism-based; design: time lower 0.25 hrs, dose 10 mg/kg, time upper 24 hrs, route po; conditions: in vivo
[17] = Half life in mouse at 3 mg/kg, iv measured for 0.25 to 24 hrs by LC-MS/MS analysis; format: ADME, organism-based; conditions: in vivo, time 0.25-24 hrs
[18] = AUC (0 to infinity) in Sprague-Dawley rat at 10 mg/kg, po measured for 0.25 to 24 hrs by LC-MS/MS analysis; format: ADME, organism-based; design: dose 10 mg/kg, time upper 24 hrs, time lower 0.25 hrs, route po; conditions: in vivo
[19] = Oral bioavailability in mouse at 10 mg/kg, measured for 0.25 to 24 hrs by LC-MS/MS analysis; format: ADME, organism-based; conditions: in vivo, time 0.25-24 hrs
[20] = Cmax in Sprague-Dawley rat at 10 mg/kg, po measured for 0.25 to 24 hrs by LC-MS/MS analysis; format: ADME, organism-based; design: time lower 0.25 hrs, dose 10 mg/kg, time upper 24 hrs, route po; conditions: in vivo
[21] = Half life in Sprague-Dawley rat at 10 mg/kg, po measured for 0.25 to 24 hrs by LC-MS/MS analysis; format: ADME, organism-based; conditions: in vivo, time 0.25-24 hrs

IC50 [2] | SMILES | IC50 (A-375 [3]) | other results
– | Nc1ncnc2c1ncn2Cc1ccccc1 | – | inhibition [4]: 15.6%
– | O=C(NC[C@H](O)CN1CCc2ccccc2C1)c1cc(NC2COC2)ncn1 | – | inhibition [5]: Dde
83.9 nM | Nc1ncnc2[nH]c(-c3ccc(OCc4ccccc4)cc3)cc12 | – | inhibition [4]: 81.9%
44.7 nM | c1ccc(COc2ccc(-c3nc4c(N5CCOCC5)ncnc4[nH]3)cc2)cc1 | – | –
88.8 nM | CC1(O)CCN(c2ncnc3[nH]c(-c4ccc(OCc5ccccc5)cc4)cc23)CC1 | – | –
59.4 nM | Nc1ncnc2[nH]c(-c3ccc(OCc4ccccc4)cc3)nc12 | – | inhibition [4]: 84.4%
– | C[C@H](Oc1ccc(-c2cc3c(C4=CCNCC4)ncnc3[nH]2)cc1)c1ccccc1 | – | Activity (MV4-11): Dde; Activity (Mus musculus [6]): Active; Activity (Mus musculus [7]): Active; Activity [8]: Active; Activity (SNU-423): Dde; Activity (MDA-MB-231): Dde; Activity (Mus musculus [9]): Active; Activity (CHL-1): Dde; Activity (MOLM-13): Dde; inhibition [5]: Dde; Activity (SNU-449): Dde; Activity [10]: Active; Activity (A-375 [11]): Dde; Activity (MDA-MB-453): Dde
119 nM | Cn1cc(-c2ncnc3[nH]c(-c4ccc(OCc5ccccc5)cc4)cc23)cn1 | – | –
51 nM | c1ccc(COc2ccc(-c3cc4c(N5CCC6(CC5)COC6)ncnc4[nH]3)cc2)cc1 | – | –
– | Nc1ncnc2c1ccn2-c1ccc(OCc2ccccc2)cc1 | – | inhibition [4]: 10.5%
10.4 nM | c1ccc(COc2ccc(-c3cc4c(N5CCCNCC5)ncnc4[nH]3)cc2)cc1 | – | –
113 nM | c1ccc(COc2ccc(-c3cc4c(-c5cn[nH]c5)ncnc4[nH]3)cc2)cc1 | – | –
– | Nc1ncnc2c1ccn2Cc1ccc(Oc2ccccc2)cc1 | – | inhibition [4]: 14.1%
55 nM | c1ccc(COc2ccc(-c3cc4c(N5CCOCC5)ncnc4[nH]3)cc2)cc1 | – | –
27.5 nM | CN1CCN(c2ncnc3[nH]c(-c4ccc(OCc5ccccc5)cc4)cc23)CC1 | – | –
16.7 nM | CN1CCCN(c2ncnc3[nH]c(-c4ccc(OCc5ccccc5)cc4)cc23)CC1 | – | –
– | C[C@H](Oc1ccc(-c2cc3c(C4=CCNCC4)ncnc3[nH]2)cc1)c1ccccc1.Cl | – | Vd [12]: 47.7 L/kg; AUC [13]: 464 h/ng/mL; bioavailability [14]: 23.7%; clearance [15]: 153 mL/min/kg; Cmax [16]: 128 ng/mL; half-life [17]: 283 min; AUC [18]: 205 h/ng/mL; bioavailability [19]: 46.2%; Cmax [20]: 27.7 ng/mL; half-life [21]: 177 min
40 nM | c1ccc(COc2ccc(-c3cc4c(N5CCN(C6COC6)CC5)ncnc4[nH]3)cc2)cc1 | – | –
11.4 nM | c1ccc(COc2ccc(-c3cc4c(N5CCNCC5)ncnc4[nH]3)cc2)cc1 | – | –
11.5 nM | c1ccc(COc2ccc(-c3nc4c(N5CCNCC5)ncnc4[nH]3)cc2)cc1 | – | –
– | Nc1ncnc2c1ncn2-c1ccc(OCc2ccccc2)cc1 | – | inhibition [4]: 20.2%
21.7 nM | C[C@@H]1CN(c2ncnc3[nH]c(-c4ccc(OCc5ccccc5)cc4)cc23)C[C@H](C)N1 | – | –
50.8 nM | O=C1CN(c2ncnc3[nH]c(-c4ccc(OCc5ccccc5)cc4)cc23)CCN1 | – | –
– | Nc1ncnc2c1ccn2Cc1cccc(Oc2ccccc2)c1 | – | inhibition [4]: 15.5%
22.3 nM | c1ccc(COc2ccc(-c3cc4c(NC5CCNCC5)ncnc4[nH]3)cc2)cc1 | – | –
17.3 nM | CN(C)CCN(C)c1ncnc2[nH]c(-c3ccc(OCc4ccccc4)cc3)cc12 | – | –
– | Nc1ncnc2c1ccn2Cc1ccccc1 | – | inhibition [4]: 18.1%
71.3 nM | CCN1CCN(c2ncnc3[nH]c(-c4ccc(OCc5ccccc5)cc4)cc23)CC1 | – | –

SMILES | IC50 [2] | IC50 (A-375 [3]) | other results
C[C@H](Oc1ccc(-c2cc3c(C4=CCNCC4)ncnc3[nH]2)c(F)c1)c1ccccc1 | 22.1 nM | 1750 nM | half-life [1]: 42.3 min
C[C@@H](Oc1ccc(-c2nc3c(C4=CCNCC4)ncnc3[nH]2)cc1)c1ccccc1 | 114 nM | 7580 nM | –
CC(Oc1ccc(-c2nc3c(C4=CCNCC4)ncnc3[nH]2)c(F)c1)c1ccccc1 (racemic) | 234 nM | 7500 nM | –
Cc1cc(O[C@@H](C)c2ccccc2)ccc1-c1cc2c(C3=CCNCC3)ncnc2[nH]1 | 32.8 nM | 3390 nM | half-life [1]: 47.3 min
C1=C(c2ncnc3[nH]c(-c4ccc(OCc5ccccc5)cc4)cc23)CCNC1 | 8 nM | – | half-life [1]: 2.99 min
CC(Oc1ccc(-c2cc3c(C4=CCNCC4)ncnc3[nH]2)cc1)c1ccccc1 (racemic) | 43.5 nM | 2480 nM | half-life [1]: 26 min
C1=C(c2ncnc3[nH]c(-c4ccc(OCc5ccccc5)cc4)nc23)CCNC1 | 14.2 nM | – | half-life [1]: 2.09 min
C[C@@H](Oc1ccc(-c2nc3c(C4=CCNCC4)ncnc3[nH]2)c(F)c1)c1ccccc1 | 157 nM | 8690 nM | –
C[C@H](Oc1ccc(-c2cc3c(C4=CCNCC4)ncnc3[nH]2)cc1F)c1ccccc1 | 23.9 nM | 3500 nM | half-life [1]: 56.2 min
C[C@@H](Oc1ccc(-c2cc3c(C4=CCNCC4)ncnc3[nH]2)c(F)c1)c1ccccc1 | 103 nM | 6490 nM | –
C[C@H](Oc1ccc(-c2nc3c(C4=CCNCC4)ncnc3[nH]2)cc1)c1ccccc1 | 34.5 nM | 5960 nM | half-life [1]: 70.1 min
CC(Oc1ccc(-c2nc3c(C4=CCNCC4)ncnc3[nH]2)cc1)c1ccccc1 (racemic) | 37.1 nM | 7170 nM | –
C[C@H](Oc1ccc(-c2nc3c(C4=CCNCC4)ncnc3[nH]2)c(F)c1)c1ccccc1 | 79.6 nM | 5420 nM | half-life [1]: 41.3 min
CC(Oc1ccc(-c2cc3c(C4=CCNCC4)ncnc3[nH]2)c(F)c1)c1ccccc1 (racemic) | 30.4 nM | 4620 nM | –
Cc1cc(-c2cc3c(C4=CCNCC4)ncnc3[nH]2)ccc1O[C@@H](C)c1ccccc1 | 80.9 nM | 8260 nM | half-life [1]: 56.8 min
C[C@@H](Oc1ccc(-c2cc3c(C4=CCNCC4)ncnc3[nH]2)cc1)c1ccccc1 | 47.7 nM | 2570 nM | half-life [1]: 18.3 min
COc1cc(O[C@@H](C)c2ccccc2)ccc1-c1cc2c(C3=CCNCC3)ncnc2[nH]1 | 193 nM | 7920 nM | –
